Article PMC4993599 (Bioorganic & medicinal chemistry letters, 2016)

Tests used:
[1] = Lipophilicity by analytical reverse phase HPLC; format: physicochemical
TSPO = TSPO (Rattus norvegicus, UniProt P16257); experiment: C6 glioma cell lysate binding assay; settings: for binding affinity (in words): TSPO

SMILES | lipophilicity (in words) [1] | binding affinity (in words) (TSPO) | other results
CCN(CC)C(=O)Cc1c(-c2ccc(OC)cc2)nn2c(C)cc(C)nc12 [Compound 8, DPA-713, reference compound] |  |  | log P7.5 ([1]; reverse phase HPLC, averaged from triple runs): 2.40
CCc1cc(CC)n2nc(-c3ccc(OC)cc3)c(CC(=O)N(CC)C(C)(C)C)c2n1 [Compound 16] |  |  | decrease of affinity when substituting ethyl groups with t-butyls (TSPO; compound 16 relative to compound 10): over 300 fold
CCc1cc(CC)n2nc(-c3ccc(OC)cc3)c(CC(=O)N3CCC3)c2n1 [Compound 23] |  | very poor binding affinity | 
CCc1cc(CC)n2nc(-c3ccc(OC)cc3)c(CC(=O)N3CCCC3)c2n1 [Compound 24] |  | very poor binding affinity | 
CCc1cc(CC)n2nc(-c3ccc(OC)cc3)c(CC(=O)N3CCCCC3)c2n1 [Compound 25] |  | very poor binding affinity | 

Continued, in another order:

lipophilicity (in words) [1] | binding affinity (in words) (TSPO) | SMILES | other results
extremely lipophilic |  | CCCCN(CCCC)C(=O)Cc1c(-c2ccc(OC)cc2)nn2c(CC)cc(CC)nc12 [Compound 12] | 
extremely lipophilic |  | CCCCCN(CCCCC)C(=O)Cc1c(-c2ccc(OC)cc2)nn2c(CC)cc(CC)nc12 [Compound 13] | 
extremely lipophilic |  | CCCCCCN(CCCCCC)C(=O)Cc1c(-c2ccc(OC)cc2)nn2c(CC)cc(CC)nc12 [Compound 14] | 
